Reference: US6906078B2, “Method of using (H+/K+) ATPase inhibitors as antiviral agents” (Pharmacia Corporation, priority 1994, dated 2005)
Where two headings read alike, the source gives them in different places.

Legend:
(H+/K+)-ATPase = target: T1, (H+/K+)-ATPase (Canis lupus familiaris, UniProt P50996); assay: Inhibition of (H+/K+)-ATPase from canine gastric mucosa (inorganic phosphate release); type: biochemical; conditions: canine gastric mucosa microsomes, pH 6.0, 30 min preincubation at 37° C.; read-out: (H+/K+)-ATPase IC50
T1 construct: The microsomes retained at the 15%-30% sucrose interface, after centrifugation at 250,000×g for sixty minutes, were used as the source of (H^+/K^+)-ATPase; from tissue; host or cells: gastric glandular mucosa of mongrel dogs (microsomal fraction, lyophilized)
Procedure: Mongrel dogs weighing 15 to 25 kilograms were fasted for twenty-four hours, with water provided ad libitum. The animals were anesthetized with pentobarbital and the stomachs were removed. Subsequent tissue manipulations and subcellular fractionations were performed at 0° C. to 4° C. After the stomachs were cut open and rinsed with tap water, the antral and cardiac regions were removed and the remaining tissue was rinsed three times in saline. The glandular mucosa was removed mechanically, chopped finely in a medium containing 10 mM Tris hydrochloride (pH 7.4) and 250 mM sucrose, and homogenized. The homogenate was centrifuged at 20,000×g for twenty minutes and the pellet discarded. The supernatant was then centrifuged at 150,000×g for ninety minutes and the supernatant discarded. The pellet was resuspended in the Tris-HCl/sucrose medium by homogenization. Part (2 ml) of the resultant microsomal suspension was layered onto a step gradient consisting of 9 ml of 15% sucrose above 12 ml of 30% sucrose, each sucrose solution being buffered with 10 mM Tris hydrochloride (pH 7.4) containing 0.01% sodium azide. The microsomes retained at the 15%-30% sucrose interface, after centrifugation at 250,000×g for sixty minutes, were used as the source of (H^+/K^+)-ATPase. Microsomal preparations were lyophilized, a process that assured potassium ion permiability, and stored at −10° C. until used.
(H^+/K^+)-ATPase activity for each test compound was determined, in duplicate, by measuring the release of inorganic phosphate, which was assayed according to the method of J. ChandraRajan and L. Klein, Anal. Biochem., 72 , 407 (1976). The (H^+/K^+)-ATPase assay medium consisted of 20 mm mes-Tris (pH 6.0), 5 mM magnesium chloride, 25 mM sucrose, and 4 mM Tris-ATP with or without 20 mM potassium chloride in a total volume of 2 ml. Microsomal suspensions (20 to 60 mcl, containing about 25 mcg protein) were added to the assay medium, without Tris-ATP, and then preincubated with a test compound for thirty minutes at 37° C. The assay was initiated by adding Tris-ATP and the mixture was incubated another thirty minutes at 37° C. A 200-mcl aliquot of the assay mixture was then added to 1.4 ml of a solution consisting of 0.1 M sodium acetate (pH 4.0) and 10% sodium dodecylsulfate, followed by the addition of 200 mcl each of 1% ammonium molybdate and 1% ascorbic acid. At least fifteen minutes later, the optical absorbance at 870 nm (which was proportional to inorganic phosphate concentration up to 100 nmoles per tube, as determined by a standard curve) was obtained. Enzyme activity was linear with incubation time.
(H^+/K^+)-ATPase activity is represented by the difference between the measured activities in the presence of potassium-ion (K^+-stimulated) and in the absence of potassium ion (basal).

gastric acid secretion = assay: Inhibition of gastric acid secretion in gastric fistula beagle dogs (histamine-stimulated); type: in vivo; conditions: for inhibition in vivo at 3 mg/kg: Canis lupus familiaris, 4 h, read-out: Gastric-Fistula Beagle % Inhibition (3 mg/kg dose)
From the text: Adult female beagle dogs weighing 6 to 11 kilograms obtained from Laboratory Research Enterprises (Kalamazoo, Mich.) or from Hazelton Research Animals (Cumberland, Va.) were surgically implanted with a simple Thomas-type gastric cannula. After recovery from surgery, the dogs were trained to stand quietly, fully conscious, in Pavlov-type dog restraining slings and were acclimated to intravenous infusion of histamine dihydrochloride. During the course of these studies, no dog was used more than once a week. All dogs were deprived of food, but not water, for 18 hours prior to each assay. Each dog was initially infused with 0.15 M sodium chloride solution at a constant rate of […]. The volume of gastric secretions, collected in plastic bottles affixed to the cannula, were measured to the nearest 0.1 ml at 30 minute intervals. One of the following protocols was followed, depending on the route chosen for administration of test compound.
Intravenous dosing: Following a 30-minute basal secretion period, test compounds were administered intravenously (i.v.). At the end of an additional 30 minute period, the saline infusion was replaced with histamine dihydrochloride in saline administered at a rate 15 mcg per kilogram of body weight per hour. Histamine stimulation was maintained for a maximum of four hours during which time gastric secretions were collected every 30 minutes. The pH and titratable acidity were determined for samples from each collection period.
Intragastric dosing: Following a 30-minute basal secretion period, he collection bottles were removed, dosing plugs here inserted, and test compounds were administered intragastrically (i.g.) At the end of a 30-minute drug absorption period, the stomachs were emptied, the collection bottles were reattached, and collections were resumed at 30-minute intervals. Simultaneously, the saline infusion was replaced with a continuous intravenous infusion of histamine dihydrochloride in saline administered for four hours at a rate 15 mcg per kilogram of body weight per hour.
Intraduodenal dosing: Dogs were also equipped with duodenal cannulas for intraduodenal (i.d.) administration of test compounds. Dosing was otherwise performed as described for intragastric dosing.
Data from each protocol were analyzed for three gastric sample variables: volume of gastric juice, acid concentration, and total acid output. Percent inhibition for each four-hour experimental period was determined for each parameter by comparison with 3 to 4 controls in which […]. Estimates of ED50's were determined from dose response curves.

[1] = intraduodenal, 3 mg/kg i.d., histamine-stimulated, four-hour period
[2] = iv, 3 mg/kg i.v., histamine-stimulated, four-hour period

T1 sequence (P50996 whole entry): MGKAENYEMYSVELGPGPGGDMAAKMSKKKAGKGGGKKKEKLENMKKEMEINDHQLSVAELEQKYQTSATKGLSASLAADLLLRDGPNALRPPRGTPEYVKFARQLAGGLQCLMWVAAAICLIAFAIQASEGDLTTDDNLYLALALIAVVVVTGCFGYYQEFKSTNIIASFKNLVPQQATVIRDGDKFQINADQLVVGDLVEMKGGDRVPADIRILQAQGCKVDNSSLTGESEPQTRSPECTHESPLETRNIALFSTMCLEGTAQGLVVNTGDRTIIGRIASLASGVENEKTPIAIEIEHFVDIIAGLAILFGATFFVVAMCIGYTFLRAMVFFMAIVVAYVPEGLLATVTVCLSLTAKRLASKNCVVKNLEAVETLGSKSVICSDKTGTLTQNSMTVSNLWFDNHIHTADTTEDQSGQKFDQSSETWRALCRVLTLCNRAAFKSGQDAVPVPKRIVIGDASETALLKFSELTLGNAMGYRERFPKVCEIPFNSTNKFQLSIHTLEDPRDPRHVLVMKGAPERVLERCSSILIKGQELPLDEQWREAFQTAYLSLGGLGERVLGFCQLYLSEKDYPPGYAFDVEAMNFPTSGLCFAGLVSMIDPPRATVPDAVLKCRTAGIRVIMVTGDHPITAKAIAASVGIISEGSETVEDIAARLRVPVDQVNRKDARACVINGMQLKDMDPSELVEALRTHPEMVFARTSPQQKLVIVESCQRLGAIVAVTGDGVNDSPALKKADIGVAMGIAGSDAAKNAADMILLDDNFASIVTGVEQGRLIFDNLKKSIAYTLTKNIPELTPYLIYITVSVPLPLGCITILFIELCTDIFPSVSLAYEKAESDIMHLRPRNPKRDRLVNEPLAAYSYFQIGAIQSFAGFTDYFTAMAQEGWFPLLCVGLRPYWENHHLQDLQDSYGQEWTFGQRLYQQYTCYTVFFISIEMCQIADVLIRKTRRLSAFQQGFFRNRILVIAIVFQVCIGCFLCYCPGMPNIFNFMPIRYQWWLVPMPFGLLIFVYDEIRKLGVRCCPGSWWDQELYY
T1 sequence (P33704 whole entry partner): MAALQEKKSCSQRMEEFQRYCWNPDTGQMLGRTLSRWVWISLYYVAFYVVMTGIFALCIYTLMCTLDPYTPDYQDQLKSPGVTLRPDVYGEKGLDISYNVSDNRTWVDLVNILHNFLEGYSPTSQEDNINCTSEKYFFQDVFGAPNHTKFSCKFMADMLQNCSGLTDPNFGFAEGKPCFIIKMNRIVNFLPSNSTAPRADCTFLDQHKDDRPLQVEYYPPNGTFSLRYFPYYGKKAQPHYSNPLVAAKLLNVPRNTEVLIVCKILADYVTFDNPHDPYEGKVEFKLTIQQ

Compound | IC50 ((H+/K+)-ATPase) | melting point | inhibition in vivo at 3 mg/kg (gastric acid secretion; [1]) | inhibition in vivo at 3 mg/kg (gastric acid secretion; [2]) | Gastric-Fistula Beagle % Inhibition (3 mg/kg dose) (gastric acid secretion; 3 mg/kg i.v., histamine-stimulated, four-hour period) | inhibition in vivo at 3 mg/kg (gastric acid secretion; intraduodenal) | inhibition in vivo at 3 mg/kg (gastric acid secretion; iv)
Nc1ccccc1C[S+]([O-])c1nc2ccccc2[nH]1 (centres unmarked) [Example 3, 2-[(1H-Benzimidazol-2-ylsulfinyl)methyl]benzenamine] | 4.3 µM | 164 to 165 °C | 53% | 59% | – | – | –
CC(=O)Nc1ccccc1C[S+]([O-])c1nc2ccccc2[nH]1 (centres unmarked) [Example 6, N-[2-[(1H-Benzimidazol-2-ylsulfinyl)methyl]phenyl]acetamide] | > 100 µM | 201 to 202.5 °C | – | 37% | – | – | –
Cc1cccc2[nH]c([S+]([O-])Cc3ccccc3N)nc12.Cc1cccc2[nH]c([S+]([O-])Cc3ccccc3N)nc12.O (centres unmarked) [Example 8, 2-[[(4-Methyl-1H-benzimidazol-2-yl)sulfinyl]methyl]benzenamine hemihydrate] | 7.4 µM | – | – | – | 60 i.v. % | – | –
Nc1ccc(Cl)cc1C[S+]([O-])c1nc2ccccc2[nH]1 (centres unmarked) [Example 16, 2-[(1H-Benzimidazol-2-ylsulfinyl)methyl]-4-chlorobenzenamine] | 130 µM | 210 to 211 °C | – | 24% | – | – | –
Nc1cc(Cl)ccc1C[S+]([O-])c1nc2ccccc2[nH]1 (centres unmarked) [Example 18, 2-[(1H-Benzimidazol-2-ylsulfinyl)methyl]-5-chlorobenzenamine] | 24 µM | 173.5 to 175.5 °C | – | 13% | – | – | –
COc1ccc2[nH]c([S+]([O-])Cc3cccc(C)c3N)nc2c1 (centres unmarked) [Example 36, 2-[[(5-Methoxy-1H-benzimidazol-2-yl)sulfinyl]methyl]-6-methylbenzenamine] | 5.4 µM | 142 to 144 °C | 72% | 96% | – | – | –
Nc1ccc(C(F)(F)F)cc1C[S+]([O-])c1nc2ccccc2[nH]1 (centres unmarked) [Example 49, 2-[(1H-Benzimidazol-2-ylsulfinyl)methyl]-4-(trifluoromethyl)benzenamine] | > 100 µM | 185 to 187 °C | 16% | – | – | – | –
COC(=O)c1cccc(C[S+]([O-])c2nc3ccccc3[nH]2)c1N (centres unmarked) [Example 69, Methyl 2-amino-3-[(1H-benzimidazol-2-ylsulfinyl)methyl]benzoate hydrate] | 153 µM | – | – | – | – | 28% | –
Nc1ccc(F)cc1C[S+]([O-])c1nc2ccccc2[nH]1 (centres unmarked) [Example 76, 2-[(1H-Benzimidazol-2-ylsulfinyl)methyl]-4-fluorobenzenamine] | 24.9 µM | 184 to 185 °C | – | – | – | – | –
Nc1ncccc1C[S+]([O-])c1nc2ccccc2[nH]1 (centres unmarked) [Example 81, 3-[(1H-Benzimidazol-2-ylsulfinyl)methyl]-2-pyridinamine hydrate] | ≥ 100 µM | – | – | – | – | – | 41%
COc1ccc2[nH]c([S+]([O-])Cc3cccc(N)n3)nc2c1 (centres unmarked) [Example 91, 6-[[(5-Methoxy-1H-benzimidazol-2-yl)sulfinyl]-methyl]-2-pyridinamine] | 4.5 µM | – | – | 46% | – | – | –
CCNc1cccc(C[S+]([O-])c2nc3ccccc3[nH]2)n1 (centres unmarked) [Example 109, 6-[(1H-Benzimidazol-2-ylsulfinyl)methyl]-N-ethyl-2-pyridinamine] | 20 µM | – | 58% | – | – | – | –

Stronger by IC50 ((H+/K+)-ATPase), values ahead:

IC50 ((H+/K+)-ATPase) | melting point | Compound | inhibition in vivo at 3 mg/kg (gastric acid secretion; [1]) | inhibition in vivo at 3 mg/kg (gastric acid secretion; [2]) | Gastric-Fistula Beagle % Inhibition (3 mg/kg dose) (gastric acid secretion; 3 mg/kg i.v., histamine-stimulated, four-hour period) | inhibition in vivo at 3 mg/kg (gastric acid secretion; intraduodenal) | inhibition in vivo at 3 mg/kg (gastric acid secretion; iv)
3.9 µM | – | CCc1cccc(C[S+]([O-])c2nc3ccccc3[nH]2)c1N (centres unmarked) [Example 38, 2-[(1H-Benzimidazol-2-ylsulfinyl)methyl]-6-ethylbenzenamine] | 21% | – | – | – | –
3.2 µM | 156 to 157 °C | Cc1cccc(C[S+]([O-])c2nc3ccccc3[nH]2)c1N (centres unmarked) [Example 28, 2-[(1H-Benzimidazol-2-ylsulfinyl)methyl]-6-methylbenzenamine] | 44% | 93% | – | – | –
2.6 µM | 146 to 148 °C | CCCCc1ccc(N)c(C[S+]([O-])c2nc3ccccc3[nH]2)c1 (centres unmarked) [Example 51, 2-[(1H-Benzimidazol-2-ylsulfinyl)methyl]-4-butylbenzenamine] | 19% | – | – | – | –
2.5 µM | – | Nc1cccc(C[S+]([O-])c2nc3ccccc3[nH]2)n1 (centres unmarked) [Example 85, 6-[(1H-Benzimidazol-2-ylsulfinyl)methyl]-2-pyridinamine] | – | 59% | – | – | –
2.1 µM | – | Cc1ccc(N)c(C[S+]([O-])c2nc3ccccc3[nH]2)c1 (centres unmarked) [Example 26, 2-[(1H-Benzimidazol-2-ylsulfinyl)methyl]-4-methylbenzenamine] | – | 67% | – | – | –
2 µM | 155 to 156 °C | CCc1ccc(N)c(C[S+]([O-])c2nc3ccccc3[nH]2)c1 (centres unmarked) [Example 37, 2-[(1H-Benzimidazol-2-ylsulfinyl)methyl]-4-ethylbenzenamine] | 62% | – | – | – | –
0.66 µM | – | Cc1cccc(N)c1C[S+]([O-])c1nc2ccccc2[nH]1 (centres unmarked) [Example 24, 2-[(1H-Benzimidazol-2-ylsulfinyl)methyl]-3-methylbenzenamine ¼ hydrate] | – | 73% | – | – | –
